Reference: US12509454B2, “Thiadiazolyl derivatives” (IDEAYA Biosciences, Inc., priority 2019, dated 2025)

The compounds below were run against Pol theta (1-899) (Homo sapiens (Human), UniProt O75417) (assay: Pol theta ATPase activity, NADH oxidation-coupled enzymatic assay). Conditions: Pol theta (1-899) 10 nM, ATP, dT50 ssDNA, absorbance 340 nm, 10-point dilution series; read-out: ATPase NADH coupling:Standard Screening:hPolQ IC50.
Assay type: biochemical
Experimental: The ability of the compounds of Formula (I) to inhibit ATPase activity of Pol theta (1-899) was determined using the assay described below.
Pol Theta ATPase activity was determined by measuring the rate of ATP turn over in a NADH oxidation-coupled enzymatic assay. 10-point dilution series of compounds were used in a 384 well format for the inhibition assays. Pol theta (1-899) (10 nM) in assay buffer (20 mM Tris HCl (pH 7.80), 80 mM KCl, 10 mM MgCl2, 1 mM DTT, 0.01% BSA, 0.01% Tween, 5% glycerol) was transferred to the test wells (20 μL), except the low control wells (20 μL of assay buffer was added to the low control wells). The plate was then incubated at room temperature for 15 min. An equal volume (20 μL) of 100 μM ATP, 300 nM dT50 (single-stranded DNA (ssDNA) containing 50 thymine bases), 300 μM NADH, 6 mM PEP, 10 U/mL lactate dehydrogenase and 20 U/mL pyruvate kinase in assay buffer was added to all the test wells. The plate was then centrifuged at 1000 rpm for 1 min. The reaction was monitored for 30 min by measuring absorbance (λ=340 nm) in a Tecan Spark multimode plate reader every minute. The high control (DMSO with enzyme) with low absorbance intensity represents no inhibition of ATPase reaction while the low control (DMSO with buffer) with high absorbance intensity represents full inhibition of ATPase activity. Slope of the reaction progress curves were used to calculate the rate of ATP hydrolysis. The rates were used to determine the percent inhibition using a four-parameter inhibition model to generate IC50, Hill slope and max inhibition.

Chain of Pol theta (1-899) (O75417 1-899): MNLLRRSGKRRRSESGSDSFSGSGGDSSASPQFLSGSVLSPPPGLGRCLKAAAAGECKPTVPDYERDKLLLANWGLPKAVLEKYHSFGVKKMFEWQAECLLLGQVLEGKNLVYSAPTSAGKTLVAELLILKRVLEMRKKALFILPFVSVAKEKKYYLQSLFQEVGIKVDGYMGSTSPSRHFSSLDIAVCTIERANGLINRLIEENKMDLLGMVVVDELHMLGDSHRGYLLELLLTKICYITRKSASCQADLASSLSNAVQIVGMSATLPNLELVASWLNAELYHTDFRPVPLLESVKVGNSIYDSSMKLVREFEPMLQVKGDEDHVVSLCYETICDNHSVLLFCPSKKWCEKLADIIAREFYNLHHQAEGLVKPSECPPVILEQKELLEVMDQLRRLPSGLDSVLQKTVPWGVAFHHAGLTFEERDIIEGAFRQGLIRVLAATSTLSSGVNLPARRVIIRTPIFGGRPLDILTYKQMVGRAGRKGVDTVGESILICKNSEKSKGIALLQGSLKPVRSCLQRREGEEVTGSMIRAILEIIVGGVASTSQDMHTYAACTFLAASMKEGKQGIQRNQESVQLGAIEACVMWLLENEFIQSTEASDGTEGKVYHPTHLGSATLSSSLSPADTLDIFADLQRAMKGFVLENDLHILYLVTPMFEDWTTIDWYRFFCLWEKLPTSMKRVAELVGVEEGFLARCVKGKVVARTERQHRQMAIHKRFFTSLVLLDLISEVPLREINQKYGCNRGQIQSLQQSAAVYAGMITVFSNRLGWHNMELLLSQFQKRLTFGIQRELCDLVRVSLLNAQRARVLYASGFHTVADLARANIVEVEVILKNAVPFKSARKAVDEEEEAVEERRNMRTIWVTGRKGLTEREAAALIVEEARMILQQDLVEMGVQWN

| IC50 [nM] | Structure (SMILES) |
| --- | --- |
| ≤ 200 | O=C(Nc1nnc(OCc2ccc(Cl)cc2)s1)c1cnccc1-c1ccccc1C(F)(F)F [Example 132, N-(5-((4-chlorobenzyl)oxy)-1,3,4-thiadiazol-2-yl)-4-(2-(trifluoromethyl)phenyl)nicotinamide] |
| ≤ 200 | COc1ccccc1-c1cc(C)ncc1C(=O)Nc1nnc(OCc2ccc(C)cn2)s1 [Example 205, 4-(2-methoxyphenyl)-6-methyl-N-(5-((5-methylpyridin-2-yl)methoxy)-1,3,4-thiadiazol-2-yl)nicotinamide] |
| ≤ 200 | O=C(Nc1nnc(OCc2ccc(Cl)cc2)s1)c1cncn1-c1ccccc1Cl [Example 42, N-(5-((4-chlorobenzyl)oxy)-1,3,4-thiadiazol-2-yl)-1-(2-chlorophenyl)-1H-imidazole-5-carboxamide] |
| ≤ 200 | COc1ccccc1-c1cc(CCC#N)ncc1C(=O)Nc1nnc(OCc2ccc(Cl)cc2)s1 [Example 164, N-[5-[(4-chlorophenyl)methoxy]-1,3,4-thiadiazol-2-yl]-6-(2-cyanoethyl)-4-(2-methoxyphenyl)pyridine-3-carboxamide] |
| 1000 to 10000 | O=C(Nc1nnc(OCc2ccc(Cl)cn2)s1)c1ccnn1-c1ccccc1 [Example 24, N-(5-((5-chloropyridin-2-yl)methoxy)-1,3,4-thiadiazol-2-yl)-1-phenyl-1H-pyrazole-5-carboxamide] |
| 200 to 500 | CC1CN(c2ncccc2C(=O)Nc2nnc(OCc3ccc(Cl)cc3)s2)CC(=O)N1 (racemic) [Example 46, (R) N-(5-((4-chlorobenzyl)oxy)-1,3,4-thiadiazol-2-yl)-2-(3-methyl-5-oxopiperazin-1-yl)nicotinamide and (S) N-(5-((4-chlorobenzyl)oxy)-1,3,4-thiadiazol-2-yl)-2-(3-methyl-5-oxopiperazin-1-yl)nicotinamide] |
| 1000 to 10000 | C[C@@H]1COCCN1c1ncccc1C(=O)Nc1nnc(OCc2ccc(Cl)cn2)s1 [Example 22, (R)—N-(5-((5-chloropyridin-2-yl)methoxy)-1,3,4-thiadiazol-2-yl)-2-(3-methylmorpholino)nicotinamide] |
| 500 to 1000 | O=C(Nc1nnc(OCc2ccc(Cl)cc2)s1)c1cccnc1-c1ccc(=O)[nH]c1 [Example 79, N-(5-((4-chlorobenzyl)oxy)-1,3,4-thiadiazol-2-yl)-6′-oxo-1′,6′-dihydro-[2,3′-bipyridine]-3-carboxamide or its tautomer N-(5-((4-chlorobenzyl)oxy)-1,3,4-thiadiazol-2-yl)-6′-hydroxy-[2,3′-bipyridine]-3-carboxamide] |
| 200 to 500 | O=C(Nc1nnc(OCc2ccc(C3CC3)cc2)s1)c1cccnc1N1CCOCC1 [Example 47, N-(5-((4-cyclopropylbenzyl)oxy)-1,3,4-thiadiazol-2-yl)-2-morpholinonicotinamide] |
| 500 to 1000 | O=C(Nc1nnc(OCc2ccc(Cl)cc2)s1)c1cncn1-c1cccnc1 [Example 17, N-(5-((4-chlorobenzyl)oxy)-1,3,4-thiadiazol-2-yl)-1-(pyridin-3-yl)-1H-imidazole-5-carboxamide] |
| ≤ 200 | O=C(Nc1nnc(OCc2ccc(Cl)cn2)s1)c1ccncc1-c1c(F)cccc1OC(F)F [Example 182, N-(5-((5-chloropyridin-2-yl)methoxy)-1,3,4-thiadiazol-2-yl)-3-(2-(difluoromethoxy)-6-fluorophenyl)isonicotinamide] |
| 500 to 1000 | CN1CCN(c2ncccc2C(=O)Nc2nnc(OCc3ccc(Cl)cc3)s2)CC1=O [Example 45, N-[5-[(4-chlorophenyl)methoxy]-1,3,4-thiadiazol-2-yl]-2-(4-methyl-3-oxopiperazin-1-yl)pyridine-3-carboxamide] |
| ≤ 200 | COc1ccccc1-c1cnccc1C(=O)Nc1nnc(OCc2cccc(Cl)c2)s1 [Example 157, N-(5-((3-chlorobenzyl)oxy)-1,3,4-thiadiazol-2-yl)-3-(2-methoxyphenyl)isonicotinamide] |
| ≤ 200 | COc1ccccc1-c1cnccc1C(=O)Nc1nnc(OCc2ccc(Cl)c3[nH]ncc23)s1 [Example 107, N-(5-((7-chloro-1H-indazol-4-yl)methoxy)-1,3,4-thiadiazol-2-yl)-3-(2-methoxyphenyl)isonicotinamide] |
| ≤ 200 | COc1ccccc1-c1cc(C)ncc1C(=O)Nc1nnc(OCc2ccc(Cl)cn2)s1 [Example 113, N-(5-((5-chloropyridin-2-yl)methoxy)-1,3,4-thiadiazol-2-yl)-4-(2-methoxyphenyl)-6-methylnicotinamide] |
| 500 to 1000 | O=C(Nc1nnc(OCc2ccc(Cl)cc2)s1)c1cncn1-c1ccccc1 [Example 4, N-(5-((4-chlorobenzyl)oxy)-1,3,4-thiadiazol-2-yl)-1-phenyl-1H-imidazole-5-carboxamide] |

| IC50 [nM] | Structure (SMILES) |
| --- | --- |
| ≤ 200 | COc1ccccc1-c1cc(CC#N)ncc1C(=O)Nc1nnc(OCc2ccc(Cl)cc2)s1 [Example 105, N-(5-((4-chlorobenzyl)oxy)-1,3,4-thiadiazol-2-yl)-6-(cyanomethyl)-4-(2-methoxyphenyl)nicotinamide] |
| ≤ 200 | N#Cc1cc(N2CCOCC2)c(C(=O)Nc2nnc(OCc3ccc(Cl)cc3)s2)cn1 [Example 35, N-(5-((4-chlorobenzyl)oxy)-1,3,4-thiadiazol-2-yl)-6-cyano-4-morpholinonicotinamide] |
| ≤ 200 | COc1cc(C#N)ccc1-c1cnccc1C(=O)Nc1nnc(OCc2ccc(Cl)cc2)s1 [Example 127, N-(5-((4-chlorobenzyl)oxy)-1,3,4-thiadiazol-2-yl)-3-(4-cyano-2-methoxyphenyl)isonicotinamide] |
| ≤ 200 | O=C(Nc1nnc(OCc2ccc(Cl)cc2)s1)c1ccncc1-c1ccccc1OC1COC1 [Example 134, N-[5-[(4-chlorophenyl)methoxy]-1,3,4-thiadiazol-2-yl]-3-[2-(oxetan-3-yloxy)phenyl]pyridine-4-carboxamide] |
| ≤ 200 | N#Cc1cc(-c2c(F)cccc2OC(F)F)c(C(=O)Nc2nnc(OCc3ccc(Cl)cc3)s2)cn1 [Example 192, N-(5-((4-chlorobenzyl)oxy)-1,3,4-thiadiazol-2-yl)-6-cyano-4-(2-(difluoromethoxy)-6-fluorophenyl)nicotinamide] |
| ≤ 200 | COc1ccccc1-n1cncc1C(=O)Nc1nnc(OCc2ccc(Cl)cc2)s1 [Example 50, N-(5-((4-chlorobenzyl)oxy)-1,3,4-thiadiazol-2-yl)-1-(2-methoxyphenyl)-1H-imidazole-5-carboxamide] |
| ≤ 200 | O=C(Nc1nnc(OCc2ccc(Cl)cn2)s1)c1cnc(CO)cc1-c1ccccc1OC(F)F [Example 104, N-(5-((5-chloropyridin-2-yl)methoxy)-1,3,4-thiadiazol-2-yl)-4-(2-(difluoromethoxy)phenyl)-6-(hydroxymethyl)nicotinamide] |
| 200 to 500 | O=C(Nc1nnc(OCc2ccc(Cl)cc2)s1)c1cncnc1N1CCOCC1 [Example 13, N-(5-((4-chlorobenzyl)oxy)-1,3,4-thiadiazol-2-yl)-4-morpholinopyrimidine-5-carboxamide] |
| 1000 to 10000 | O=C(Nc1nnc(OCc2ccc(Cl)cn2)s1)c1cccnc1N1CCC(F)(F)CC1 [Example 39, N-(5-((5-chloropyridin-2-yl)methoxy)-1,3,4-thiadiazol-2-yl)-2-(4,4-difluoropiperidin-1-yl)nicotinamide] |
| 200 to 500 | COc1ncccc1-c1ccncc1C(=O)Nc1nnc(OCc2ccc(Cl)cc2)s1 [Example 129, N-(5-((4-chlorobenzyl)oxy)-1,3,4-thiadiazol-2-yl)-2-methoxy-[3,4′-bipyridine]-3′-carboxamide] |
| 200 to 500 | O=C(Nc1nnc(OCc2ccc(Cl)cn2)s1)c1cncn1-c1ccccc1Cl [Example 26, 3-(2-chlorophenyl)-N-[5-[(5-chloropyridin-2-yl)methoxy]-1,3,4-thiadiazol-2-yl]imidazole-4-carboxamide] |
| 1000 to 10000 | COc1ccccc1-c1cc(CN)ncc1C(=O)Nc1nnc(OCc2ccc(Cl)cn2)s1 [Example 204, 6-(aminomethyl)-N-[5-[(5-chloropyridin-2-yl)methoxy]-1,3,4-thiadiazol-2-yl]-4-(2-methoxyphenyl)pyridine-3-carboxamide] |
| 200 to 500 | N#Cc1ccccc1-n1cncc1C(=O)Nc1nnc(OCc2ccc(Cl)cc2)s1 [Example 43, N-(5-((4-chlorobenzyl)oxy)-1,3,4-thiadiazol-2-yl)-1-(2-cyanophenyl)-1H-imidazole-5-carboxamide] |
| ≤ 200 | O=C(Nc1nnc(OCc2ccc(Cl)cc2)s1)c1cnccc1-c1ccccc1OC1CC1 [Example 93, N-(5-((4-chlorobenzyl)oxy)-1,3,4-thiadiazol-2-yl)-4-(2-cyclopropoxyphenyl)nicotinamide] |
| 1000 to 10000 | O=C(Nc1nnc(OCc2ccc(Cl)cc2)s1)c1cccnc1N1CCOc2ccccc21 [Example 66, N-(5-((4-chlorobenzyl)oxy)-1,3,4-thiadiazol-2-yl)-2-(2,3-dihydro-4H-benzo[b][1,4]oxazin-4-yl)nicotinamide] |
| 500 to 1000 | N#Cc1cnc(N2CCOCC2)c(C(=O)Nc2nnc(OCc3ccc(Cl)cn3)s2)c1 [Example 33, N-(5-((5-chloropyridin-2-yl)methoxy)-1,3,4-thiadiazol-2-yl)-5-cyano-2-morpholinonicotinamide] |
